Usually % Inhibition stands for the relative decrease from the control value, in per cent. Low readings indicate a response near the control, high ones a response far below the control. For orientation: IC50 means the concentration needed to halve the response being measured.

We go through one compound from PMC6281186, “Bioinformatics: A rational combine approach used for the identification and in-vitro activity evaluation of potent β-Glucuronidase inhibitors” (PLoS ONE, 2018).

In the experiment the target is T1, β-glucuronidase enzyme (Escherichia coli, UniProt P05804).
T1 construct: purchased Sigma Aldrich G7396-25KU
T1 sequence (P05804 whole entry): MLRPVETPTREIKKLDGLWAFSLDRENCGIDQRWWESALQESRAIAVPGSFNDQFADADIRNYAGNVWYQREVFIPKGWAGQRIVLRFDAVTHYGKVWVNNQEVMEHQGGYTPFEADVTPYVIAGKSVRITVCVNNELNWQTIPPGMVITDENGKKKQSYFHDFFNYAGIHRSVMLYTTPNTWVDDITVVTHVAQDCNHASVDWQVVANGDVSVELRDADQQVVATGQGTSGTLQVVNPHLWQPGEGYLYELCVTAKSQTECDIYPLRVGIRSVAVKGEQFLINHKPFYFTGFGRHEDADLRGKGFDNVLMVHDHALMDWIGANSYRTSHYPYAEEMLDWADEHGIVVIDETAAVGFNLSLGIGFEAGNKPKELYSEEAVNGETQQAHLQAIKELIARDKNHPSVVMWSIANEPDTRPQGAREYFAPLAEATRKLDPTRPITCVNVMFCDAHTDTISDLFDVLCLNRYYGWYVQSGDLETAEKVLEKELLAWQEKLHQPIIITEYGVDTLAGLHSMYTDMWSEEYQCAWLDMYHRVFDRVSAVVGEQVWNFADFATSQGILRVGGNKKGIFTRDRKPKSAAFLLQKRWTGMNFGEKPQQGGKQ
In words: β-Glucuronidase inhibition assay (spectrophotometric, p-nitrophenyl-β-D-glucuronide). It counts as biochemical. The method, then: β-Glucuronidase inhibitory activity was determined with the help of spectrophotometric method by measuring the absorbance at 405 nm of p-nitrophenol formed from the substrate (p-nitrophenyl-β-D-glucuronide, N1627-250 mg, Sigma Aldrich). The total reaction volume was 250 μL. The compound dissolved in DMSO (100%), which becomes 2% in the ultimate assay (250 μL) and the similar conditions were used for standard (D-saccharic acid 1, 4-lactone, Sigma Aldrich). The reaction mixture contained 185 μL of 0.1 M acetate buffer, 5 μL of test compound solution, 10 μL of (1U) enzyme solution (G7396-25KU, Sigma Aldrich) was incubated at 37°C for 30 min. The plates were read on a multiplate reader (SpectraMax plus 384) at 405 nm after the addition of 50 μL of 0.4 mM p-nitrophenyl-β-D-glucuronide. All assays were performed in triplicate. IC50values were calculated by using EZ-Fit software (Perrella Scientific Inc., Amherst, MA, U.S.A.). These values are the mean of three independent readings^ [23]

The structures appear in SMILES notation.

In the case of `O=C1OC(C(O)C(=O)O)C(O)C1O` [D-saccharic acid 1,4-lactone], the “% Inhibition” value (Conc. 200 μM) is on record as 89.4%. Under “β-glucuronidase inhibition, mean of three readings, read-out: IC50 μM±SEM”, the concentration for half-maximal inhibition (IC50) turned out to be 45.8 ± 2.16 µM.
